Assay results taken from US7763426B2, “Probes and methods for detection of Escheridia coli and antibiotic resistance” (priority 2004, dated 2010).
{Fluorescein} = fluorescein label (binding site for anti-fluorescein Fab-HRP); {Biotin} = biotin (capture probe anchor)

System: bacterial 16S rRNA
Assay: Clinical validity study: UTI Chip on blinded clinical urine specimens
Type: binding
Description: Amperometric detection of bacterial 16S rRNA. An overview of the electrochemical sensor detection strategy is presented in panel C of FIG. 1. One ml of bacteria in Luria broth, inoculated clean urine, or clinical urine samples was centrifuged at 10,000×g for 5 min. The supernatant was discarded and the bacteria were lysed by resuspension of the pellet in 10 μl of 1 M NaOH and incubation at room temperature for 5 min. In some experiments, addition of 1M NaOH was preceded by resuspension of the bacterial pellet in 10 μl of 0.1% Triton X-100, 2 mM EDTA, and 1 mg/ml lysozyme (Sigma) in 20 mM Tris-HCl, pH 8.0, and incubation at room temperature for 5 min. 50 μl of the detector probe (0.25 μM) in 2.5% bovine serum albumin (Sigma, St. Louis, Mo.) 1 M phosphate buffer, pH 7.4, were added to the bacterial lysate and incubated for 10 min at 65° C. to allow target-probe hybridization. 4 μl of the bacterial lysate/detector probe mixture was deposited on each of the working electrodes in the sensor array and incubated for 15 min at 65° C. in a humidified chamber. After washing and drying, 4 μl of 0.5 U/ml anti-fluorescein horseradish peroxidase (HRP) Fab fragments (Roche, diluted in 0.5% casein in 10 mM phosphate buffered saline, pH 7.4) were deposited on each of the working electrodes for 15 min. After washing and drying, a prefabricated plastic well manifold (GeneFluidics, Monterey Park, Calif.) was bonded to the sensor array. The sensor array was put into the chip reader (FIG. 18) and 50 μl of 3,3′,5,5′-tetramethylbenzidine (TMB), H2O2 solution (K-Blue Low Activity TMB Substrate, Neogen, Lexington, Ky.) was placed on each of the sensors in the array so as to cover all three electrodes of each sensor. Electrochemical measurements are immediately and simultaneously taken for all 16 sensors. For each array, negative control (NC) sensors were tested including the UNI capture probe, detector probe, and 2.5% bovine serum albumin (Sigma, St, Louis, Mo.) in 1 M phosphate buffer, pH 7.4, instead of bacterial lysate. The entire assay protocol was completed within 45 min from the time when bacterial lysis was commenced. Amperometric current vs. time was measured using a multichannel potentiostat (GeneFluidics). The voltage was fixed at −200 mV (vs. reference), and the electroreduction current was measured at 60 s after the HRP redox reaction reached steady state.
Clinical validity study design. Clinical urine specimens were received from routine urine cultures collected from inpatients and outpatients and submitted to the UCLA Clinical Microbiology Laboratory. Routine plating on tripticase soy agar with 5% sheep blood was performed on each specimen for phenotypic identification and colony counting while an aliquot of each specimen was held at 4° C. overnight. On the day after plating, specimens were selected for inclusion in the study on the basis of a rapid indole test for the purpose of including uropathogens other than Escherichia coli in approximately one-half of the specimens. The other half of the specimens were divided between E. coli-containing specimens and specimens determined to have ““no significant growth” or no growth” (see definitions below). Because most UTIs involve a single uropathogen, specimens determined by the clinical microbiology laboratory to have more than one organism present were excluded. Blinded specimens selected for inclusion in the study were stripped of patient identifiers and any microbiological data before delivery to the research laboratory for testing with the electrochemical sensor array.
Experiments were performed on all specimens using the 16-sensor array ‘UTI Chip’, in which the UNI, EB, EC, PM, KE, PA, and EF capture probes (defined in Tables 1 and 2) were tested in duplicate. The two remaining sensors served as negative controls (including capture and detector probes without bacterial lysate). […]

[1] = No Significant Growth specimens
[2] = specimens with Citrobacter freundii
[3] = specimens with Citrobacter koseri
[4] = specimens with Enterobacter aerogenes
[5] = specimens with Enterobacter cloacae
[6] = specimens with Enterobacteriaceae
[7] = specimens with Enterococcus species
[8] = specimens with Escherichia coli
[9] = specimens with Gram-negative bacteria
[10] = specimens with Gram-positive bacteria
[11] = specimens with Klebsiella pneumoniae
[12] = specimens with Proteus mirabilis
[13] = specimens with Pseudomonas aeruginosa
[14] = specimens with Serratia marcescens
[15] = specimens with Staph. saprophyticus

Substance: UNI: Universal Bacterial probe pair: capture 797 (27 mer) SEQ ID NO: 13, detector 766 (31 mer) SEQ ID NO: 14 (DNA 1 CATCGTTTACGGCGTGGACTACCAGGG; DNA 2 TATCTAATCCTGTTTGCTCCCCACGCTTTCG; DNA 1: DNA, 5' {Biotin}, backbone and methylation of C not given here; DNA 2: DNA, 5' {Fluorescein}, backbone and methylation of C not given here)
- sensitivity for detection of Gram-negative bacteria in clinical urine specimens: 100%
- specificity (10/12 no growth specimens): 83%
- overall sensitivity for detection of uropathogens in clinical urine specimens (54/58, 0.30 log unit threshold): 93%
- Mean (range) (All specimens with bacteria): 1.28 (0.33-1.84) log10 units over background
- Positive/Total = Percent (All specimens with bacteria): 54/58 = 93%
- Mean (range) (No Growth specimens): 0.38 (0.34-0.42) log10 units over background
- Positive/Total = Percent (No Growth specimens): 2/12 = 17%
- Mean (range) [1]: 0.42 (0.31-0.57) log10 units over background
- Positive/Total = Percent [1]: 5/3 = 63%
- Mean (range) [2]: 1.49 (1.43-1.55) log10 units over background
- Positive/Total = Percent [2]: 2/2 = 100%
- Mean (range) [3]: 1.23 log10 units over background
- Positive/Total = Percent [3]: 1/1 = 100%
- Mean (range) [4]: 1.35 (0.93-1.65) log10 units over background
- Positive/Total = Percent [4]: 5/5 = 100%
- Mean (range) [5]: 1.43 log10 units over background
- Positive/Total = Percent [5]: 1/1 = 100%
- Mean (range) [6]: 1.32 (0.40-1.84) log10 units over background
- Positive/Total = Percent [6]: 47/47 = 100%
- Mean (range) [7]: 0.92 (0.33-1.78) log10 units over background
- Positive/Total = Percent [7]: 5/8 = 63%
- Mean (range) [8]: 1.30 (0.54-1.77) log10 units over background
- Positive/Total = Percent [8]: 26/26 = 100%
- Mean (range) [9]: 1.32 (0.40-1.84) log10 units over background
- Positive/Total = Percent [9]: 48/48 = 100%
- Mean (range) [10]: 0.95 (0.33-1.78) log10 units over background
- Positive/Total = Percent [10]: 6/10 = 60%
- Mean (range) [11]: 1.22 (0.40-1.84) log10 units over background
- Positive/Total = Percent [11]: 8/8 = 100%
- Mean (range) [12]: 1.41 (1.16-1.66) log10 units over background
- Positive/Total = Percent [12]: 3/3 = 100%
- Mean (range) [13]: 1.33 log10 units over background
- Positive/Total = Percent [13]: 1/1 = 100%
- Mean (range) [14]: 1.67 log10 units over background
- Positive/Total = Percent [14]: 1/1 = 100%
- Mean (range) [15]: 1.10 log10 units over background
- Positive/Total = Percent [15]: 1/2 = 50%
